Assay results taken from paper PMC6827013, “Alpha-Glucosidase and Alpha-Amylase Inhibitory Activities of Novel Abietane Diterpenes from Salvia africana-lutea” (Antioxidants, 2019).
pIC50: −log10 of the molar value. Where two headings read alike, the source gives them in different places.

Columns and labels:
[1] = target: α-glucosidase (Saccharomyces cerevisiae); experiment: Alpha-glucosidase inhibitory activity (p-NPG substrate, absorbance 405 nm); assay type: biochemical; details: mean ± SEM, n = 3; NA = not active at the test concentrations
Description: Alpha-glucosidase inhibitory activity of the isolated compounds was carried out according to the standard method, with a slight modification. […] Next, 20 μL of p-NPG (5 mM) was added as a substrate and incubated further at 37 °C for 20 min. The reaction was stopped by adding 50 μL of sodium carbonate Na2CO3 (0.1 M). […] Each experiment was performed in triplicates. […] Inhibitory activity (%) = (1 − A/B) ×100(1) where A is the absorbance in the presence of the test substance and B is the absorbance of the control.

[2] = target: T1, α-amylase (procaine pancreas) (Sus scrofa, UniProt P00690); experiment: Alpha-amylase inhibitory activity (starch substrate, DNS, absorbance 540 nm); assay type: biochemical; details: mean ± SEM, n = 3; NA = not active at the test concentrations
T1 construct: α-amylase (procaine pancreas); purchased Sigma-Aldrich, Cape town, South Africa; host or cells: pancreas
T1 sequence (P00690 16-511): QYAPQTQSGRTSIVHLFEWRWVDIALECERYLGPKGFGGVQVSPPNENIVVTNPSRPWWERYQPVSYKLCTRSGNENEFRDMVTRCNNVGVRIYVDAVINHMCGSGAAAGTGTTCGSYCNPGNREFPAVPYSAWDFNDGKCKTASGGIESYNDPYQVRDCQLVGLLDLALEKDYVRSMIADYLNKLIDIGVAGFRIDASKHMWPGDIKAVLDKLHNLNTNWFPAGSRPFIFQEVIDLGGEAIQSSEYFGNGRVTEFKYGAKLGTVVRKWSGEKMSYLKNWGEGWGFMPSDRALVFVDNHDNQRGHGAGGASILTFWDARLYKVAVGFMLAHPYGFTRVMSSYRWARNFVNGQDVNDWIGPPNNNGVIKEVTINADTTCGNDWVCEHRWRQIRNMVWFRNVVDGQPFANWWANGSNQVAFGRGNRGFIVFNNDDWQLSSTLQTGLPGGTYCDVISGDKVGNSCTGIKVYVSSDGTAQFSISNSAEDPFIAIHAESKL
Description: The alpha-amylase inhibitory activity of the extract and fractions was carried out according to the standard method, with a slight modification [24]. In a 96-well plate, the reaction mixture containing 50 μL of phosphate buffer (100 mM, pH = 6.8), 10 μL alpha amylase (2 U/mL), and 20 μL of varying concentrations of isolated compounds was pre-incubated at 37 °C for 20 min. Next, 20 μL of 1% soluble starch (100 mM phosphate buffer pH 6.8) was added as a substrate and incubated further at 37 °C for 30 min. A volume of 100 μL of the color reagent (DNS) was added and then boiled for 10 min. The absorbance of the resulting mixture was measured at 540 nm using a Multiplate Reader (Multiskan thermo scientific, version 1.00.40). […] Each experiment was performed in triplicates. The results were expressed as the percentage inhibition, which was calculated using Formula (2). Inhibitory activity (%) = (1 − A/B) ×100(2) where A is the absorbance in the presence of the test substance and B is the absorbance of the control.

[3] = Ferric-ion reducing antioxidant power (FRAP) assay; details: ascorbic acid equivalents; mean ± SEM, n = 3
Description: The FRAP assay was carried out in accordance with the method described previously. […] L-Ascorbic acid was used as a standard, and the results were expressed as µmole ascorbic acid equivalents per […] of dry weight (μM AAE/g DW) of the test samples.
The in vitro antioxidant activity of the isolated compounds of the methanolic extract of S. africana-lutea were investigated by evaluating their ferric-ion reducing antioxidant power (FRAP), trolox equivalent absorbance capacity (TEAC), and oxygen radical absorbance capacity (ORAC) activities. […] Nevertheless, other aspects can be considered, for example, the presence of vicinal hydroxyl groups is essential in a pronounced antioxidant activity. […] It has been shown that the phenolic group at the 11 position would be more implicated in the antioxidant activity. In general, phenolic compounds are expected to transfer electrons or donate protons to the reactive radicals because of the resonance stability of the phenoxy radical.

[4] = Oxygen radical absorbance capacity (ORAC) assay
Source text: ORAC assay was done according to the previous method. ORAC values were expressed as micromoles of trolox equivalents (TE) per milligram of the test sample. Samples without a perfect curve were further diluted, and the dilution factors were used in the calculations of such samples.
(§1) The in vitro antioxidant activity of the isolated compounds of the methanolic extract of S. africana-lutea were investigated by evaluating their ferric-ion reducing antioxidant power (FRAP), trolox equivalent absorbance capacity (TEAC), and oxygen radical absorbance capacity (ORAC) activities. […] Phenolic compounds have been reported to be responsible for the antioxidant activity of numerous plant species by stabilization of radicals by donating electrons or by metal ion complexation, among other mechanisms. Nevertheless, other aspects can be considered, for example, the presence of vicinal hydroxyl groups is essential in a pronounced antioxidant activity. Abietane diterpenes are known for having strong antioxidant activity due to the presence of ortho-dihydroxyl groups/vicinal hydroxyls in the aromatic ring that serve as hydrogen and/or electron donating agents to the corresponding reactive species leading to the formation of the stable quinone derivatives. It has been shown that the phenolic group at the 11 position would be more implicated in the antioxidant activity. In general, phenolic compounds are expected to transfer electrons or donate protons to the reactive radicals because of the resonance stability of the phenoxy radical.

[5] = Trolox equivalent absorbance capacity (TEAC) assay
Description: The total anti-oxidant activity of the test sample was measured using previously described methods. Absorbance was read at 734 nm at 25 °C in a plate reader, and the results were expressed as μmole Trolox equivalents per […] of dry weight (μM TE/g DW) of the test samples.
as §1

[6] = Trolox equivalents, mean ± SEM, n = 3, NA = not active at the test concentrations

Alpha-Glucosidase IC50 [1] [µg/mL]	pIC50 [2]	SMILES	FRAP [3] [µM AAE/g]	ORAC [4, 6] [µmole TE/g]	TEAC [5, 6] [µmole TE/g]	ORAC [4] [µM TE/g]	TEAC [5] [µM TE/g]
17.1 ± 1.0	3.75	CC1(C)CC[C@]2(C)CC[C@]3(C)C(=CC[C@@H]4[C@@]5(C)CC[C@H](O)C(C)(C)[C@@H]5CC[C@]43C)[C@@H]2C1 [Compound 10, β-amyrin]	412.2 ± 13.0				
		COc1c(C(C)C)cc2c(c1O)C13CCCC(C)(COC(C)=O)C1CC2OC3=O (stereo not shown) [Compound 4, 19-acetoxy-12-methoxy carnosol]	1257.0 ± 6.7	559.7 ± 15.2	440.1 ± 1.5		
		COC1c2cc(C(C)C)c(O)c(O)c2C23CCC(OC(C)=O)C(C)(C)C2C1OC3=O (stereo not drawn) [Compound 2, 3β-acetoxy-7α-methoxyrosmanol]	2200.9 ± 14.2	2233.9 ± 8.0	635.7 ± 0.8		
		COc1c(C(C)C)cc2c(c1O)[C@@]1(C(=O)O)CCC[C@](C)(COC(C)=O)C1CC2 (stereo partly shown) [Compound 1, 19-acetoxy-12-methoxycarnosic acid]	1217.4 ± 2.9	2588.2 ± 10.1	694.0 ±1.6	2588.2 ± 10.1	
85.8 ± 2.3		CC1CCC23CCC4(C)C5(C)CCC6C(C)(C)C(O)CCC6(C)C5C=CC4(OC2=O)C3C1C (stereo not shown) [Compound 9, 11,12-dehydroursolic acid lactone]	283.4 ± 3.9				
		CC(C)c1cc2c(c(O)c1O)[C@]13CCC[C@](C)(C(O)OC1=O)C3CC2 (stereo partly shown) [Compound 5, clinopodiolide A]	2262.9 ± 11.0	2357.2 ± 0.1	862.2 ± 1.4		862.2 ± 1.4
		O=C(O[C@@H]1Cc2c(O)cc(O)cc2O[C@@H]1c1cc(O)c(O)c(O)c1)c1cc(O)c(O)c(O)c1 [EGCG, Epigallocatechingallate, reference compound]	7525.0 ± 4.9	3976.8 ± 3.8	4146.4 ± 19.8		
81.7 ± 2.1		COc1c(C(C)C)cc2c(c1O)[C@]13CCC[C@](C)(C(O)OC1=O)C3CC2 (stereo partly shown) [Compound 6, clinopodiolide B]	1480.0 ± 3.9	1502.5 ± 21.2	724.9 ± 1.3		705.5 ± 2.0
		CC1(C)CC[C@]2(C(=O)O)CC[C@]3(C)C(=CC[C@@H]4[C@@]5(C)CC[C@H](O)C(C)(C)[C@@H]5CC[C@]43C)[C@@H]2C1 [Compound 7, oleanolic acid]	347.8 ± 3.7				
		COC1c2cc(C(C)C)c(O)c(O)c2C23CCCC(C)(COC(C)=O)C2C1OC3=O (stereo not drawn) [Compound 3, 19-acetoxy-7α-methoxyrosmanol]	1440.4 ± 9.1	735.4 ± 2.0	124.4 ± 0.6		
